In patent US9884063B2, “Amido-substituted azole compounds” (Bayer Pharma Aktiengesellschaft, priority 2014, dated 2018):

Target: T1, TNKS1 (Homo sapiens, UniProt O95271)
T1 sequence (O95271 1-1327): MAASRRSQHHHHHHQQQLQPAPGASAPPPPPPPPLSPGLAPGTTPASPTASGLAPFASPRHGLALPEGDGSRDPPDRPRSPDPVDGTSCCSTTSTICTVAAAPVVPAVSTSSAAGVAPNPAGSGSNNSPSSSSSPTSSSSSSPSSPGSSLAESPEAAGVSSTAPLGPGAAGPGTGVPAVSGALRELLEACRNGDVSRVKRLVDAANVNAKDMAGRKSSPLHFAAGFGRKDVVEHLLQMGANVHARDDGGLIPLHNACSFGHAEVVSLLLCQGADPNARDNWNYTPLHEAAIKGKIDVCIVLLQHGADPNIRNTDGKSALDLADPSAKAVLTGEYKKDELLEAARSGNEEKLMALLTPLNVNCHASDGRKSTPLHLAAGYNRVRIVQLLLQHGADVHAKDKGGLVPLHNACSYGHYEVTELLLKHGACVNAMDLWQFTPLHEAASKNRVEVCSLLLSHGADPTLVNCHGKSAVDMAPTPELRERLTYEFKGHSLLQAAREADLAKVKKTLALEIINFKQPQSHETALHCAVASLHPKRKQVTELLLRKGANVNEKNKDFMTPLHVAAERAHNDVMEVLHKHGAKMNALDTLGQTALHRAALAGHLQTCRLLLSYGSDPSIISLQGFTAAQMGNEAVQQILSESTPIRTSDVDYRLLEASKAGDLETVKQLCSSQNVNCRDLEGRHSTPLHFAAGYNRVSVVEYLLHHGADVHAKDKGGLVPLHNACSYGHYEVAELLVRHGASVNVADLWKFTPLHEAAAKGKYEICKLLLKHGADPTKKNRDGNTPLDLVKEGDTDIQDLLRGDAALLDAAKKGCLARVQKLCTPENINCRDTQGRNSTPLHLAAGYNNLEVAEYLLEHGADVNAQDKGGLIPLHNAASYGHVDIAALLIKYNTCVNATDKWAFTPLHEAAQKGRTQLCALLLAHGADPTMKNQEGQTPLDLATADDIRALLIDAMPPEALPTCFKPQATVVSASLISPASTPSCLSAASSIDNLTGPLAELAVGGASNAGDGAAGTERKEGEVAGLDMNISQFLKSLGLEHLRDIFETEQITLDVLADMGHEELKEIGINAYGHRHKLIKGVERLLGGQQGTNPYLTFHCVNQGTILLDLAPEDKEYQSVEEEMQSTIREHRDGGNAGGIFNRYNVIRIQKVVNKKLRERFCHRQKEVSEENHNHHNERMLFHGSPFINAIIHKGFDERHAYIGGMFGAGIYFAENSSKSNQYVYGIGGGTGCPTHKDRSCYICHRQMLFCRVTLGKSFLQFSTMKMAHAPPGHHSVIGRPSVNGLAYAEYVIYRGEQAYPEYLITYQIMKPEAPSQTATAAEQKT
Assay: TNKS1 Assay 1 (TNKS1 Histone Ribosylation Assay Kit, biotin-labeled NAD+)
Format: biochemical
Conditions: chemiluminescent readout, 384 well
Protocol: The potency of the compounds according to the invention was assessed by applying an in vitro inhibition assay. The TNKS1 catalyzed NAD^+-dependent ribosylation of a suitable protein substrate was detected using a commercially available biotin/streptavidin binding based assay format [TNKS1 Histone Ribosylation Assay Kit (Biotin-labeled NAD+), Catalog #80579; BPS Bioscience, San Diego, USA]. Here, the incorporation of a biotin-labeled NAD+ during the TNKS1 catalyzed ribosylation reaction was detected with a streptavidin-HRP coupled chemi-luminescent readout. The intensity of the readout signal is proportional to the incorporated NAD^+. Inhibition of TNKS1 leads to a decreased incorporation of NAD^+ and consequently to a lower readout signal intensity. The concentration of a test compound which inhibits the enzyme activity by 50% (corresponds to half of the normed readout signal intensity) is reported as IC50.
The assay was conducted in a 384 well MTP format according to the manufacturer's protocol [bpsbioscience.com/poly-adp-ribose-polymerase/assay-kit/tnks1-histone-ribosylation-assay-kit-biotin-labeled-nad-80579 referencing: Brown, J. A., Marala, R. B. J. Pharmacol. Toxicol. Methods 2002 47:137-41] and using a BMG Pherastar MTP reader [BMG-Labtech, Offenburg, Germany].

SMILES	IC50 (Table 1) [nM]	IC50 (first table) [nM]
CNC(=O)c1nc[nH]c1C(=O)Nc1ccc(NC(=O)c2cccc(Cl)c2Cl)cc1 [Example 1, N^5-{4-[(2,3-dichlorobenzoyl)amino]phenyl}-N^4-methyl-1H-imidazole-4,5-dicarboxamide]	1010	1010
CNC(=O)c1nc[nH]c1C(=O)Nc1ccc(NC(=O)c2ccc(N3CCCC3)cc2F)cc1 [Example 3, N^5-(4-{[2-fluoro-4-(pyrrolidin-1-yl)benzoyl]amino}phenyl)-N^4-methyl-1H-imidazole-4,5-dicarboxamide]	> 100000	–
CNC(=O)c1nc[nH]c1C(=O)Nc1ccc(NC(=O)c2ccc(N(C)C)cc2Cl)cc1 [Example 4, N^5-(4-{[2-chloro-4-(dimethylamino)benzoyl]amino}phenyl)-N^4-methyl-1H-imidazole-4,5-dicarboxamide]	120	120
CNC(=O)c1nc[nH]c1C(=O)Nc1ccc(NC(=O)c2ccc(F)cc2Cl)c(C)c1 [Example 5, N^5-{4-[(2-chloro-4-fluorobenzoyl)amino]-3-methylphenyl}-N^4-methyl-1H-imidazole-4,5-dicarboxamide]	320	320
CNC(=O)c1nc[nH]c1C(=O)Nc1ccc(NC(=O)c2ccncc2Cl)cc1 [Example 6, N^5-{4-[(3-chloroisonicotinoyl)amino]phenyl}-N^4-methyl-1H-imidazole-4,5-dicarboxamide]	50	50
CCC(C)NC(=O)c1ncoc1C(=O)Nc1ccc(NC(=O)c2ccc(F)cc2Cl)cc1 (stereo not drawn) [Example 7, N^4-sec-butyl-N^5-{4-[(2-chloro-4-fluorobenzoyl)amino]phenyl}-1,3-oxazole-4,5-dicarboxamide]	1300	1300
CC(NC(=O)c1ncoc1C(=O)Nc1ccc(NC(=O)c2ccc(F)cc2Cl)cc1)c1ccccc1 (stereo not drawn) [Example 8, N^5-{4-[(2-chloro-4-fluorobenzoyl)amino]phenyl}-N^4-(1-phenylethyl)-1,3-oxazole-4,5-dicarboxamide]	2270	2270
CNC(=O)c1nc[nH]c1C(=O)Nc1ccc(NC(=O)c2ccc(Cl)cc2Cl)cc1 [Example 9, N^5-{4-[(2,4-dichlorobenzoyl)amino]phenyl}-N^4-methyl-1H-imidazole-4,5-dicarboxamide]	110	110
CC(C)NC(=O)c1nc[nH]c1C(=O)Nc1ccc(NC(=O)c2ccc(F)cc2Cl)cc1 [Example 10, N^5-{4-[(2-chloro-4-fluorobenzoyl)amino]phenyl}-N^4-isopropyl-1H-imidazole-4,5-dicarboxamide]	310	310
CNC(=O)c1ncoc1C(=O)Nc1ccc(NC(=O)c2ccc(F)cc2Cl)cc1 [Example 11, N^5-{4-[(2-chloro-4-fluorobenzoyl)amino]phenyl}-N^4-methyl-1,3-oxazole-4,5-dicarboxamide]	220	–
CNC(=O)c1nc[nH]c1C(=O)Nc1ccc(NC(=O)c2ccc(F)cc2Cl)cc1 [Example 12, N^5-{4-[(2-chloro-4-fluorobenzoyl)amino]phenyl}-N^4-methyl-1H-imidazole-4,5-dicarboxamide]	20	20
COC(=O)c1ncoc1C(=O)Nc1ccc(NC(=O)c2ccc(F)cc2Cl)cc1 [Example 14, Methyl 5-({4-[(2-chloro-4-fluorobenzoyl)amino]phenyl}carbamoyl)-1,3-oxazole-4-carboxylate]	420	420
CC(C)NC(=O)c1ncoc1C(=O)Nc1ccc(NC(=O)c2ccc(F)cc2Cl)cc1 [Example 15, N^5-{4-[(2-chloro-4-fluorobenzoyl)amino]phenyl}-N^4-isopropyl-1,3-oxazole-4,5-dicarboxamide]	900	900
CNC(=O)c1nc[nH]c1C(=O)Nc1ccc(NC(=O)c2ccc(F)cc2Cl)nc1 [Example 16, N^5-{6-[(2-chloro-4-fluorobenzoyl)amino]pyridin-3-yl}-N^4-methyl-1H-imidazole-4,5-dicarboxamide]	70	70
CNC(=O)c1nc[nH]c1C(=O)Nc1ccc(NC(=O)c2c(-c3ccccc3)nn(C)c2Cl)cc1 [Example 17, N^5-(4-{[(5-chloro-1-methyl-3-phenyl-1H-pyrazol-4-yl)carbonyl]amino}phenyl)-N^4-methyl-1H-imidazole-4,5-dicarboxamide]	> 100000	≥ 100000
O=C(Nc1ccc(NC(=O)c2[nH]cnc2C(=O)NCc2ccccc2)cc1)c1ccc(F)cc1Cl [Example 18, N^4-benzyl-N^5-{4-[(2-chloro-4-fluorobenzoyl)amino]phenyl}-1H-imidazole-4,5-dicarboxamide]	420	420
CNC(=O)c1nc[nH]c1C(=O)Nc1ccc(NC(=O)c2ccccc2C)cc1 [Example 19, N^4-methyl-N^5-{4-[(2-methylbenzoyl)amino]phenyl}-1H-imidazole-4,5-dicarboxamide]	1700	1700
CNC(=O)c1nc[nH]c1C(=O)Nc1ccc(NC(=O)c2ccc(F)cc2)cc1 [Example 20, N^5-{4-[(4-fluorobenzoyl)amino]phenyl}-N^4-methyl-1H-imidazole-4,5-dicarboxamide]	1700	1700
CNC(=O)c1nc[nH]c1C(=O)Nc1ccc(NC(=O)c2c(C)cc(F)cc2C)cc1 [Example 23, N^5-{4-[(4-fluoro-2,6-dimethylbenzoyl)amino]phenyl}-N^4-methyl-1H-imidazole-4,5-dicarboxamide]	770	770
CN(C)C(=O)c1nc[nH]c1C(=O)Nc1ccc(NC(=O)c2ccc(F)cc2Cl)cc1 [Example 24, N^5-{4-[(2-chloro-4-fluorobenzoyl)amino]phenyl}-N^4,N^4-dimethyl-1H-imidazole-4,5-dicarboxamide]	280	280
CNC(=O)c1nc[nH]c1C(=O)Nc1ccc(NC(=O)c2ccc(OCCN(C)C)cc2Cl)cc1 [Example 25, N^5-[4-({2-chloro-4-[2-(dimethylamino)ethoxy]benzoyl}amino)phenyl]-N^4-methyl-1H-imidazole-4,5-dicarboxamide]	70	70
CNC(=O)c1nc[nH]c1C(=O)Nc1ccc(NC(=O)c2c(Cl)cccc2Cl)cc1 [Example 26, N^5-{4-[(2,6-dichlorobenzoyl)amino]phenyl}-N^4-methyl-1H-imidazole-4,5-dicarboxamide]	410	400
CNC(=O)c1nc[nH]c1C(=O)Nc1ccc(NC(=O)c2ccccc2Cl)cc1 [Example 27, N^5-{4-[(2-chlorobenzoyl)amino]phenyl}-N^4-methyl-1H-imidazole-4,5-dicarboxamide]	100	100
CNC(=O)c1nc[nH]c1C(=O)Nc1ccc(NC(=O)c2ccc(OCCN3CCN(C)CC3)cc2Cl)cc1 [Example 28, N^5-[4-({2-chloro-4-[2-(4-methylpiperazin-1-yl)ethoxy]benzoyl}amino)phenyl]-N^4-methyl-1H-imidazole-4,5-dicarboxamide]	70	70
O=C(Nc1ccc(NC(=O)c2[nH]cnc2C(=O)NCC(F)(F)F)cc1)c1ccc(F)cc1Cl [Example 30, N^4-{4-[(2-chloro-4-fluorobenzoyl)amino]phenyl}-N^5-(2,2,2-trifluoroethyl)-1H-imidazole-4,5-dicarboxamide]	140	140
